Molecular target: T1, Interleukin-1 receptor-associated kinase 4 (Homo sapiens, UniProt Q9NWZ3)
T1 sequence (Q9NWZ3 whole entry): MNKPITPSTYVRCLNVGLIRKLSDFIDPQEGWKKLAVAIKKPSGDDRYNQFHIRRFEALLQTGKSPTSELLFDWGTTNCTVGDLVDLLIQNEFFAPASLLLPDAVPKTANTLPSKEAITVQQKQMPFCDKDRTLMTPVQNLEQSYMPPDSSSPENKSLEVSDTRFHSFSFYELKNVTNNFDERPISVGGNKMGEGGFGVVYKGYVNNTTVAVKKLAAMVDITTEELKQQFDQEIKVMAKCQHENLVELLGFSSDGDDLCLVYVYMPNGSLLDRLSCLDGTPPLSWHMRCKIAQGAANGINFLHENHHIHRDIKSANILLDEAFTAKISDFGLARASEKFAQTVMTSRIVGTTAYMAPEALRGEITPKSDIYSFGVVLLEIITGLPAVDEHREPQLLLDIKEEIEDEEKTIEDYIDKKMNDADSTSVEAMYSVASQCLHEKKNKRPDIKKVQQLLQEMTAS
Experiment: IRAK4 Kinase Inhibition Assay
Experimental: In this assay, Cisbio HTRF KinEASE-STK SI kit (62S 1 PEB) was used, in which assay/detection buffer, STK Substrate 1-biotin, Streptavidin-XL665, STK Antibody-Cryptate were contained. After adding compound/DMSO to a 384-well plate (PerkinElmer 6008280) using Echo 665, 5 μL of 2-fold reaction concentration of IRAK4 kinase protein (final concentration: 10 nM) dissolved with assay buffer [1 volume of 5× kinase buffer+20 mM magnesium chloride (Sigma) solution+1 mM DTT (Alfa Aesar) solution+4 volumes deionized water] was added, followed by sealing the shallow well plate, shaking and then centrifuging at 1000 rpm for 1 min, and incubating at room temperature for 5 min; then 5 μL of 2-fold reaction concentration of a 1:1 mixture of STK Substrate 1-biotin (final concentration: 1 μM) and ATP (Sigma A1852) (final concentration: 200 μM) formulated with assay buffer was added, followed by sealing the shallow well plate, shaking and then centrifuging at 1000 rpm for 1 min, and incubating at 37° C. for 2 h, and then 10 μL of a 1:1 mixture of Streptavidin-XL665 (final concentration: 62.5 nM) and STK-antibody-cryptate dissolved with detection buffer was added, followed by sealing the shallow well plate, shaking and then centrifuging at 1000 rpm for 1 min, and incubating at room temperature for 1 h, and thereafter reading the value at the wavelength of 620 nm/665 nm using a microplate reader.

## OCC1CCC(n2cc(-n3cc(-c4cnn5ccc(C6CCOC6)nc45)nn3)c(C(F)F)n2)CC1 (stereo unspecified) [US20260028337, Compound 98A]
  IC50: < 0.1 µM
